The values that follow come from paper PMC5026167, “Characterizing Active Site Conformational Heterogeneity along the Trajectory of an Enzymatic Phosphoryl Transfer Reaction” (Angewandte Chemie (International Ed. in English), 2016).

Read-outs that look alike come from different tables or passages of the source.

The target in test [1] is T1, UmpK (UMP/CMP kinase) (Dictyostelium discoideum, UniProt P20425).
T1 construct: gene pyrK; recombinant, expressed and purified as in Supporting Information; details not in main text
T1 sequence (P20425 whole entry): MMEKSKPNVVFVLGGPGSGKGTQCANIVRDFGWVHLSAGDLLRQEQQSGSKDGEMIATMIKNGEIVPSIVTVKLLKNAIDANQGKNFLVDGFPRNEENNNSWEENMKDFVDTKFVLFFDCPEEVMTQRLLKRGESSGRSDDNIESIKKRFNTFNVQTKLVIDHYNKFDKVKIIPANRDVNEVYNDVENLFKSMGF
Description: stopped-flow nucleotide exchange with MANT-AP5A-MANT. Type of test: binding. The conditions noted are these: dissociation rate of ADP and UMP together, no metal fluoride.

Test [2] deals with T1, UmpK (UMP/CMP kinase). Description: biochemical. Also noted: fluorescence titration, equilibrium binding / displacement of fluorescent MANT-ADP. From the text:
First, we defined and characterized stable states along the reaction coordinate (Supporting Information). One reference state is nucleotide‐free (apo) UmpK (Figure 1 a), where the catalytic side‐chains are expected to be very flexible because of the absence of any ligand, thus giving an indication of the upper limit of conformational entropy. An ideal reference for a substrate/product‐bound state is provided by UmpK in complex with the bi‐substrate inhibitor AP5U (Supporting Information; Figure 1 b), where a phosphate group covalently links ATP and UMP such that nucleotide‐like binding occurs but without turnover.11 The overall structure of UmpK in complex with AP5U is essentially identical to other nucleotide‐bound structures available (Figure 1 b). Despite minor differences in the lid loop conformation and the aliphatic part of the R137 side‐chain, the position of the central guanidino groups is nearly identical. […] The transition state of the phosphoryl transfer reaction is well‐represented by UmpK in complex with the TSA formed by ADP, UMP/CMP and an AlFx molecule that mimics the phosphoryl group being transferred (Figure 1 c).7 To further confirm the formation of a stable complex that captures the transition state structure, we performed functional studies including nucleotide exchange kinetics measurements in the presence and absence of aluminium fluoride (Figures 1 f and S1/S2, Table S1).  Figure 1 a) Nucleotide‐free UmpK (H. sapiens, PDB: 1TEV10). b) Overlay of UmpK in complex with the bi‐substrate inhibitor AP5U, (red, D. discoideum, PDB: 1UKE11), and in complex with ADP and CMP (orange, D. discoideum, PDB: 2UKD7). c) UmpK in complex with the TSA ADP:AlFx:CMP (D. discoideum, PDB: 3UKD7). In (a–c) arginine side‐chains are shown in yellow (numbering refers to UmpK from D. discoideum). d) Schematic representation of the reaction catalyzed by UmpK and the states studied here: nucleotide‐free (green), substrate/product‐bound (red), and the transition state (blue). e) AP5U binding to UmpK monitored by equilibrium displacement of fluorescent MANT‐ADP. Binding of AP5U (K D≤1.0 nM) generates a stable substrate/product‐like state. f) Nucleotide exchange kinetics measured by stopped flow. UmpK incubated with UMP and ADP in the presence of 0.5 mM AlFx (blue), 3 mM MgFx (grey) or in the absence of any fluoride (red) was mixed rapidly with the competing ligand MANT‐AP5A‐MANT. […] 3 Materials and Methods: 1. Mutagenesis, protein expression and purification: Arginine to lysine mutations were introduced into UmpK from Dictyostelium discoideum using the QuikChange® protocol. DNA sequencing was performed to verify the eight introduced mutations. Unlabeled [U-1 H,12C,14N] UmpK was expressed in LB medium, uniformly 15N-/ 13C-labeled [U-13C,15N] UmpK was expressed in M9 minimal medium using 2 g/L U-13C-glucose and 1 g/L 15NH4Cl as the sole carbon and nitrogen sources, respectively. Selectively labelled [13C,15N-Arg; U-12C,14N] UmpK and [13C,15N-Arg+Lys; U-12C,14N] UmpK with only (i) arginine residues or (ii) lysine and arginine residues isotopically labelled, respectively, were expressed in M9 minimal medium supplemented (i) 100 mg/L 15N-/ 13C-arginine or (ii) 100 mg/L 15N-/ 13C-arginine and 15N-/ 13C-lysine. All UmpK variants were purified as described previously using Blue Sepharose affinity chromatography and SourceQ anion exchange chromatography.

Test [3] concerns the target T1, UmpK (UMP/CMP kinase). Briefly: biochemical. Set-up: fluorescence titration of nucleotide binding to UmpK (MANT-ADP fluorescence / displacement). The conditions noted are these: Mg-free. From the text: First, we defined and characterized stable states along the reaction coordinate (Supporting Information). One reference state is nucleotide‐free (apo) UmpK (Figure 1 a), where the catalytic side‐chains are expected to be very flexible because of the absence of any ligand, thus giving an indication of the upper limit of conformational entropy. An ideal reference for a substrate/product‐bound state is provided by UmpK in complex with the bi‐substrate inhibitor AP5U (Supporting Information; Figure 1 b), where a phosphate group covalently links ATP and UMP such that nucleotide‐like binding occurs but without turnover.11 The overall structure of UmpK in complex with AP5U is essentially identical to other nucleotide‐bound structures available (Figure 1 b). Despite minor differences in the lid loop conformation and the aliphatic part of the R137 side‐chain, the position of the central guanidino groups is nearly identical. […] The transition state of the phosphoryl transfer reaction is well‐represented by UmpK in complex with the TSA formed by ADP, UMP/CMP and an AlFx molecule that mimics the phosphoryl group being transferred (Figure 1 c).7 To further confirm the formation of a stable complex that captures the transition state structure, we performed functional studies including nucleotide exchange kinetics measurements in the presence and absence of aluminium fluoride (Figures 1 f and S1/S2, Table S1).  Figure 1 a) Nucleotide‐free UmpK (H. sapiens, PDB: 1TEV10). b) Overlay of UmpK in complex with the bi‐substrate inhibitor AP5U, (red, D. discoideum, PDB: 1UKE11), and in complex with ADP and CMP (orange, D. discoideum, PDB: 2UKD7). c) UmpK in complex with the TSA ADP:AlFx:CMP (D. discoideum, PDB: 3UKD7). In (a–c) arginine side‐chains are shown in yellow (numbering refers to UmpK from D. discoideum). d) Schematic representation of the reaction catalyzed by UmpK and the states studied here: nucleotide‐free (green), substrate/product‐bound (red), and the transition state (blue). e) AP5U binding to UmpK monitored by equilibrium displacement of fluorescent MANT‐ADP. Binding of AP5U (K D≤1.0 nM) generates a stable substrate/product‐like state. f) Nucleotide exchange kinetics measured by stopped flow. UmpK incubated with UMP and ADP in the presence of 0.5 mM AlFx (blue), 3 mM MgFx (grey) or in the absence of any fluoride (red) was mixed rapidly with the competing ligand MANT‐AP5A‐MANT.

Setting [4] is: 5 mM MgCl2, alone, read-out: UmpK wild-type (5 mM MgCl2) Alone.
Where [5] appears, read: with ADP, 5 mM MgCl2, 250 uM second nucleotide present, read-out: UmpK wild-type (5 mM MgCl2) in the presence of 250 uM second nucleotide.
Where [6] appears, read: with 250 uM ADP, read-out: wild-type (Mg-free) in presence of 250 uM ADP.
Setting [7] is: with CMP, 5 mM MgCl2, 250 uM second nucleotide present, read-out: UmpK wild-type (5 mM MgCl2) in the presence of 250 uM second nucleotide.

As for `O=c1ccn([C@@H]2O[C@H](COP(=O)(O)O)[C@@H](O)[C@H]2O)c(=O)[nH]1` [UMP], the k fast in test [1] (ADP present) is recorded as ~ 60 s^-1.
`O=c1ccn([C@@H]2O[C@H](COP(=O)(O)OP(=O)(O)O)[C@@H](O)[C@H]2O)c(=O)[nH]1` [UDP]: the Kd in test [2] (setting [4]) stood at 600 ± 70 µM; in test [2] (setting [5]), 60 ± 14 µM; in test [3] (setting [6]), 400 ± 45 µM.
The matching figures for `Nc1ccn([C@@H]2O[C@H](COP(=O)(O)O)[C@@H](O)[C@H]2O)c(=O)n1` [CMP]: 77 ± 11 µM, 23 ± 3 µM and 205 ± 20 µM.
The matching figures for `Nc1ccn([C@@H]2O[C@H](COP(=O)(O)OP(=O)(O)O)[C@@H](O)[C@H]2O)c(=O)n1` [CDP]: 66 ± 11 µM, 17 ± 3 µM and 64 ± 6 µM.
For `Nc1ncnc2c1ncn2[C@@H]1O[C@H](COP(=O)(O)OP(=O)(O)O)[C@@H](O)[C@H]1O` [ADP], in test [1] (UMP present), the k fast was ~ 60 s^-1. For the same compound, the Kd in test [2] (setting [4]) was found to be 80 ± 2 µM; in test [2] (setting [7]) it was 10 ± 1 µM; in test [3] (with 250 uM CDP, read-out: wild-type (Mg-free) in presence of 250 uM CDP), 49 ± 0.5 µM.
Turning to `Nc1ncnc2c1ncn2[C@@H]1O[C@H](COP(=O)(O)OP(=O)(O)OP(=O)(O)O)[C@@H](O)[C@H]1O` [ATP], the Kd in test [2] (setting [4]) was 51 ± 2 µM; in test [2] (setting [7]), 7.3 ± 0.4 µM; in test [3] (with 250 uM CMP, read-out: wild-type (Mg-free) in presence of 250 uM CMP), 68 ± 3 µM.
